Positions of bridges follow the written chain, without caps; N, C: chain ends. Non-standard residues stand in square brackets, D forms with d. Residues, ends and D or L forms follow the SMILES beside them. Asu = N[C@@H](CCCCCC(=O)O)C(=O)O
Legend:
[1] = tested on: sheep lens; details: sheep lens in vitro, incubation; cited from earlier work
[2] = tested on: corneal epithelium; assay: Systemic and local (corneal) tolerance after topical instillation of the collyrium; type: in vivo, rabbit; details: rabbits, topical collyrium 5 U.MRC; 2% fluorescein test
Description: After the Keratocentesis a new test of the corneal surface integrity was performed with instillation of 2% fluorescein and washing with physiological solution.

Compound	calcium levels in the lens [1]	systemic phenomena of drug intolerance and local toxic phenomena (corneal epithelium) [2]
calcitonin	raises the calcium levels proportionally with the incubation times	–
CC(C)C[C@H](NC(=O)[C@H](CCCCN)NC(=O)CNC(=O)[C@H](CC(C)C)NC(=O)[C@@H](NC(=O)[C@@H]1CCCCCC(=O)N[C@@H](CO)C(=O)N[C@@H](CC(N)=O)C(=O)N[C@@H](CC(C)C)C(=O)N[C@@H](CO)C(=O)N[C@@H]([C@@H](C)O)C(=O)N1)C(C)C)C(=O)N[C@@H](CO)C(=O)N[C@@H](CCC(N)=O)C(=O)N[C@@H](CCC(=O)O)C(=O)N[C@@H](CC(C)C)C(=O)N[C@@H](Cc1c[nH]cn1)C(=O)N[C@@H](CCCCN)C(=O)N[C@@H](CC(C)C)C(=O)N[C@@H](CCC(N)=O)C(=O)N[C@H](C(=O)N[C@@H](Cc1ccc(O)cc1)C(=O)N1CCC[C@H]1C(=O)N[C@@H](CCCNC(=N)N)C(=O)N[C@H](C(=O)N[C@@H](CC(=O)O)C(=O)N[C@H](C(=O)NCC(=O)N[C@@H](C)C(=O)NCC(=O)N[C@H](C(=O)N1CCC[C@H]1C(N)=O)[C@@H](C)O)C(C)C)[C@@H](C)O)[C@@H](C)O [elcatonin] (SNLST[Asu]VLGKLSQELHKLQTYPRTDVGAGTP-NH2; lactam N-6)	–	No animal showed systemic phenomena of the drug intolerance nor local toxic phenomena
